Experimental findings from publication PMC9699600, “Characterization of a Family of Scorpion Toxins Modulating Ca^2+-Activated Cl^− Current in Vascular Myocytes” (Toxins, 2022) are described below.

For assay [1], the system named is Ca2+-activated and voltage-activated K+ currents. The experiment in a line: Ca2+-activated and voltage-activated K+ currents, patch clamp. As to conditions: 100 nM, sequential application. In kind it is cell-based, rat.
Method: For K^+ current recording, the patch-clamp pipette contained 130 mM KCl and the external solution contained 5.6 mM KCl. Ca^2+-activated and voltage-activated K^+ currents were elicited by depolarizing pulses from −80 to 0 mV and Ca^2+-activated K^+ currents were activated by the opening of Ca^2+ channel during the depolarization step.
Voltage-clamp and membrane current recordings were made with a standard patch-clamp technique using a List EPC-7 patch-clamp amplifier (Darmstadt-Eberstadt, Germany). Patch pipettes had resistances of 3–4 MΩ. […] Patch-clamp experiments were carried out at 30 ± 1 °C.
The normal physiological solution contained (in mM): NaCl 130, KCl 5.6, MgCl2 1, CaCl2 2, glucose 11 and HEPES 10, pH 7.4 with NaOH. The basic pipette solution contained (in mM) CsCl 130, HEPES 10 and pH 7.3 with NaOH (CsCl was replaced by KCl for potassium current measurements). […] Lqh peptides, chlorotoxin and other toxins were added in a bath solution.
The target of assay [2] is T1, Ca2+-activated Cl− current (TMEM16A/Ano1) in rat portal vein myocytes (Rattus norvegicus, UniProt A0A8I6GL36).
T1 construct: Isolated myocytes from rat portal veins were obtained by enzymatic dispersion; endogenous in cells; host or cells: freshly dissociated rat portal vein smooth muscle cells (short-term primary culture, used within 24 h)
The experiment in a line: Ca2+-activated Cl− current evoked by caffeine, whole-cell patch clamp. Particulars: 1 µM external application, 10 mM caffeine, holding potential −50 mV. The format is cell-based. A general note: In patch-clamp work, channel activity is measured electrically.
Method: In rat portal vein myocytes, at a holding potential of −50 mV, the external application of 10 mM caffeine induces a transient current depending on an increase in cytoplasmic Ca^2+ concentration, this current was characterized as Cl^− current [9] in the used experimental conditions. The amplitude of the Ca^2+-activated Cl^− current in our setup was 190 ± 20 pA (n = 101).
Isolated myocytes from rat portal veins were obtained by enzymatic dispersion, as described previously (Morel et al. 1996).
Voltage-clamp and membrane current recordings were made with a standard patch-clamp technique using a List EPC-7 patch-clamp amplifier (Darmstadt-Eberstadt, Germany). Patch pipettes had resistances of 3–4 MΩ. When [Ca^2+]i measurements were carried out simultaneously, Indo-1 (50 µM) was added to the pipette solution in the whole-cell recording mode and [Ca^2+]i was estimated from the 405/480 nm fluorescence ratio, using a calibration determined within cells, as previously described [36]. Patch-clamp experiments were carried out at 30 ± 1 °C. […]
The pooled data of n experiments are given as mean ± standard error. […] Inhibition-response curves were analyzed by a nonlinear least-squares fitting program according to models involving one or two binding sites (Graphpad-Prism software).

T1 sequence (A0A8I6GL36 1-990): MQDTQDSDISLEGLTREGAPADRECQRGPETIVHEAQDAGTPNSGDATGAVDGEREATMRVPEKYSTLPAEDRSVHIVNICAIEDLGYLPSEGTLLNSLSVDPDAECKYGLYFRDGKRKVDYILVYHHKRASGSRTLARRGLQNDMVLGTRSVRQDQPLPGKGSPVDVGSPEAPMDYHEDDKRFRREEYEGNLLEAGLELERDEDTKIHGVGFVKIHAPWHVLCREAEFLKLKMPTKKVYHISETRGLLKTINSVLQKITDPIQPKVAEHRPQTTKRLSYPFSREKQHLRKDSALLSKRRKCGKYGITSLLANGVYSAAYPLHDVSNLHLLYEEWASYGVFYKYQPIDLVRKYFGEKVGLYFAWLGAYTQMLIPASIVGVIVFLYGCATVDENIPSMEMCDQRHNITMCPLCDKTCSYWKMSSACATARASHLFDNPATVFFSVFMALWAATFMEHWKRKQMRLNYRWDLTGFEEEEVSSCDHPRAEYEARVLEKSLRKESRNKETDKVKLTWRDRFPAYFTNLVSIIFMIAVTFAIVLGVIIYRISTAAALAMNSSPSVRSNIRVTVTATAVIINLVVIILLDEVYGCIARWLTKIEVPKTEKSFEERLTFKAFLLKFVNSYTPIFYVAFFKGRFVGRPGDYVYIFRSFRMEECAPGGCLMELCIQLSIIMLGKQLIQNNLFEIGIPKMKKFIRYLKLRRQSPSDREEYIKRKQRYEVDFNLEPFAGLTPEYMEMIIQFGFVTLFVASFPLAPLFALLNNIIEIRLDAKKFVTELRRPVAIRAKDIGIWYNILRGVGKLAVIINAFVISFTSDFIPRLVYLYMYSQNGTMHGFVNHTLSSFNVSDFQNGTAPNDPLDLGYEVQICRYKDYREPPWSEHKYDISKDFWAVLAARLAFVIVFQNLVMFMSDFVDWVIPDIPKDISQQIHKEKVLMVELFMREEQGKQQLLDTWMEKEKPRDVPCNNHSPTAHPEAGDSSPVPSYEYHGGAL

As to charybdotoxin, the “effect on K+ currents (confirmation of both types of K+ currents)” value in assay [1] is “inhibition”.

In the case of chlorotoxin, the “inhibition of the Ca2+-activated Cl− current at 1 µM” value in assay [2] came to 36 ± 9%.

For the substance “scyllatoxin (AFCNLRMCQLSCRSLGLLGKCIGDKCECVKH; UniProt P16341 1-31, looked up) [K+ channel toxin from Latoxan]”, in assay [1], the “effect on K+ currents (confirmation of both types of K+ currents)” value is “inhibition”.
